Tests used:
[1] = target: T1, GDP-KRAS G12D mutant protein (Homo sapiens, UniProt P01116, G12D); test: Differential scanning fluorimetry (DSF) binding affinity to GDP-KRAS G12D mutant protein; conditions: DSF thermal shift, 10 μM compound, 4 μg KRAS protein
T1 construct: purchased Daegu Gyeongbuk Medical Innovation Foundation (DGMIF), made to order
Procedure: (§1) Test Example 1: Measurement of Binding Affinity to KRAS G12D Mutant Protein The binding affinities of the compounds according to one embodiment of the present application to the KRAS G12D mutant protein were evaluated using differential scanning fluorimetry (DSF). Differential scanning fluorimetry (DSF) is a method used to study the stability of a protein upon binding to a compound. The experiment can be performed using a real-time PCR (RT-PCR) instrument, and is commonly employed as a screening technique for small-molecule compounds targeting specific proteins. As the temperature increases, folded proteins begin to unfold, during which a hydrophobic dye such as SYPRO Orange binds to the exposed hydrophobic regions of the protein, resulting in a measurable increase in fluorescence intensity (maximum absorption at 470 nm and maximum emission at 570 nm). Protein-compound binding is determined by the difference in the melting temperature (Tm) of the protein in the presence of the compound compared to the Tm in the absence of the compound, expressed as ΔTm. The binding affinity to the KRAS G12D mutant protein was measured using the Protein Thermal Shift Dye kit (#4461146, Applied Biosystems). The GDP-KRAS G12D mutant protein and GppNHp-KRAS G12D mutant protein used in the experiment were recombinant proteins synthesized by the Daegu Gyeongbuk Medical Innovation Foundation (DGMIF) upon request. The analysis of binding between the compound and the KRAS G12D mutant protein was performed according to the following reaction recipe: each test sample contained 4 μg of KRAS protein, 10 μM of the compound, and 2×SYPRO Orange dye. For the GDP-KRAS G12D protein samples, the buffer provided with the Protein Thermal Shift Dye kit was used, while for the GppNHp-KRAS G12D protein samples, 50 mM HEPES (pH 7.5) buffer was used. For the protein-compound binding reaction, the compound was added to the KRAS G12D mutant protein and reacted at room temperature for 30 minutes, followed by the addition of 2×SYPRO Orange dye. The temperature was increased to 25° C.-99° C. (0.05° C./s) using QuantStudiol RT-PCR instrument (Applied Biosystems), and fluorescence was measured using a ROX reporter with filters of 580±10 nm (excitation)/623±14 nm (emission). The measurements obtained at a compound concentration of 10 μM were analyzed using the Protein Thermal Shift Software program (version v1.4, Thermo Fisher Scientific), and the ΔTm (° C.) values, which indicate the binding affinity of the compound to the KRAS G12D mutant protein, were calculated. The DSF measurement results for the compounds according to one embodiment of the present application with respect to the KRAS G12D mutant protein are shown in Table 2.

[2] = target: T2, GppNHp-KRAS G12D mutant protein (Homo sapiens, UniProt P01116, G12D); test: Differential scanning fluorimetry (DSF) binding affinity to GppNHp-KRAS G12D mutant protein; conditions: DSF thermal shift, 10 μM compound, 4 μg KRAS protein, 50 mM HEPES (pH 7.5)
T2 construct: purchased Daegu Gyeongbuk Medical Innovation Foundation (DGMIF), made to order
Procedure: as §1

SMILES | GDP-KRAS G12D (ΔTmD, ° C.) [1] | GppNHp-KRAS G12D (ΔTmD, ° C.) [2]
CCc1c(F)ccc2cc(O)cc(-c3cc4nc(OC[C@@]56CCCN5C[C@H](F)C6)nc(NCC5(N(C)C)CCC5)c4n4ccnc34)c12 [Example 4, 4-(1-(((1-(dimethylamino)cyclobutyl)methyl)amino)-3-(((2R,7aS)-2-fluorotetrahydro-1H-pyrrolizin-7a(5H)-yl)methoxy)imidazo[1′,2′:1,6]pyrido[3,2-d]pyrimidin-6-yl)-5-ethyl-6-fluoronaphthalen-2-ol] | 1.90 °C | 0.57 °C
Nc1c(F)c(F)c(F)c(-c2cc3nc(OC[C@@]45CCCN4C[C@H](F)C5)nc(N4C[C@H]5CC[C@@H](C4)N5)c3n3ccnc23)c1F [Example 13, 3-(1-((1R,5S)-3,8-diazabicyclo[3.2.1]octan-3-yl)-3-(((2R,7aS)-2-fluorotetrahydro-1H-pyrrolizin-7a(51H)-yl)methoxy)imidazo[1′,2′:1,6]pyrido[3,2-d]pyrimidin-6-yl)-2,4,5,6-tetrafluoroaniline] | 0.28 °C | −0.61 °C
Nc1nc2c(-c3cc4nc(OC[C@@]56CCCN5C[C@H](F)C6)nc(N5[C@@H]6CC[C@H]5CNC6)c4n4ccnc34)ccc(F)c2s1 [Example 15, 4-(1-((1R,5S)-3,8-diazabicyclo[3.2.1]octan-8-yl)-3-(((2R,7aS)-2-fluorotetrahydro-1H-pyrrolizin-7a(5H)-yl)methoxy)imidazo[1′,2′:1,6]pyrido[3,2-d]pyrimidin-6-yl)-7-fluorobenzo[d]thiazol-2-amine] | −0.01 °C | 0.28 °C
Cc1cc2[nH]ncc2c(-c2cc3nc(OC[C@@]45CCCN4C[C@H](F)C5)nc(N4[C@@H]5CC[C@H]4CNC5)c3n3ccnc23)c1C(F)(F)F [Example 18, 1-((1 R,5S)-3,8-diazabicyclo[3.2.1]octan-8-yl)-3-(((2R,7aS)-2-fluorotetrahydro-1H-pyrrolizin-7a(5H)-yl)methoxy)-6-(6-methyl-5-(trifluoromethyl)-1H-indazol-4-yl)imidazo[1′,2′:1,6]pyrido[3,2-d]pyrimidine] | 2.35 °C | 1.01 °C
C#Cc1c(F)ccc2cc(O)cc(-c3cc4nc(OCC5(CN6CCC[C@H](F)C6)CC5)nc(N5[C@@H]6CC[C@H]5CNC6)c4n4ccnc34)c12 [Example 19, 4-(1-((1R,5S)-3,8-diazabicyclo[3.2.1]octan-8-yl)-3-((1-(((S)-3-fluoropiperidin-1-yl)methyl)cyclopropyl)methoxy)imidazo[1′,2′:1,6]pyrido[3,2-d]pyrimidin-6-yl)-5-ethynyl-6-fluoronaphthalen-2-ol] | 7.68 °C | 3.82 °C
Cc1cc(N)nc(-c2cc3nc(OC[C@@]45CCCN4C[C@H](F)C5)nc(N4[C@@H]5CC[C@H]4CNC5)c3n3ccnc23)c1C(F)(F)F [Example 20, 6-(1-((1R,5S)-3,8-diazabicyclo[3.2.1]octan-8-yl)-3-(((2R,7aS)-2-fluorotetrahydro-1H-pyrrolizin-7a(5H)-yl)methoxy)imidazo[1′,2′:1,6]pyrido[3,2-d]pyrimidin-6-yl)-4-methyl-5-(trifluoromethyl)pyridin-2-amine] | −0.17 °C | 0.27 °C
C#Cc1c(F)ccc2cccc(-c3cc4nc(OC[C@@]56CCCN5C/C(=C\F)C6)nc(N5[C@@H]6CC[C@H]5CNC6)c4n4ccnc34)c12 [Example 22, 1-((1R,5S)-3,8-diazabicyclo[3.2.1]octan-8-yl)-6-(8-ethynyl-7-fluoronaphthalen-1-yl)-3-(((S,Z)-2-(fluoromethylene)tetrahydro-1H-pyrrolizin-7a(5H)-yl)methoxy)imidazo[1′,2′:1,6]pyrido[3,2-d]pyrimidine] | 4.28 °C | 1.02 °C
C#Cc1c(F)ccc2cc(N)cc(-c3cc4nc(OC[C@@]56CCCN5C[C@H](F)C6)nc(N5C[C@H]6CC[C@@H](C5)N6)c4n4ccnc34)c12 [Example 24, 4-(1-((1R,5S)-3,8-diazabicyclo[3.2.1]octan-3-yl)-3-(((2R,7aS)-2-fluorotetrahydro-1H-pyrrolizin-7a(5H)-yl)methoxy)imidazo[1′,2′:1,6]pyrido[3,2-d]pyrimidin-6-yl)-5-ethynyl-6-fluoronaphthalen-2-amine] | 5.48 °C | 2.07 °C
Nc1nc2c(-c3cc4nc(OC[C@@]56CCCN5C[C@H](F)C6)nc(N5C[C@H]6CC[C@@H](C5)N6)c4n4ccnc34)ccc(F)c2s1 [Example 25, 4-(1-((1R,5S)-3,8-diazabicyclo[3.2.1]octan-3-yl)-3-(((2R,7aS)-2-fluorotetrahydro-1H-pyrrolizin-7a(5H)-yl)methoxy)imidazo[1′,2′:1,6]pyrido[3,2-d]pyrimidin-6-yl)-7-fluorobenzo[d]thiazol-2-amine] | 0.27 °C | −0.17 °C
Cc1cc2[nH]ncc2c(-c2cc3nc(OC[C@@]45CCCN4C[C@H](F)C5)nc(N4C[C@H]5CC[C@@H](C4)N5)c3n3ccnc23)c1C(F)(F)F [Example 26, 1-((1 R,5S)-3,8-diazabicyclo[3.2.1]octan-3-yl)-3-(((2R,7aS)-2-fluorotetrahydro-1H-pyrrolizin-7a(5H)-yl)methoxy)-6-(6-methyl-5-(trifluoromethyl)-1H-indazol-4-yl)imidazo[1′,2′:1,6]pyrido[3,2-d]pyrimidine] | 4.12 °C | 1.01 °C
C#Cc1c(F)ccc2cccc(-c3cc4nc(OC[C@@]56CCCN5C/C(=C\F)C6)nc(N5C[C@H]6CC[C@@H](C5)N6)c4n4ccnc34)c12 [Example 27, 1-((1 R,5S)-3,8-diazabicyclo[3.2.1]octan-3-yl)-6-(8-ethynyl-7-fluoronaphthalen-1-yl)-3-(((S,Z)-2-(fluoromethylene)tetrahydro-1H-pyrrolizin-7a(5H)-yl)methoxy)imidazo[1′,2′:1,6]pyrido[3,2-d]pyrimidine] | 4.27 °C | 0.71 °C
C#Cc1c(F)ccc2cccc(-c3cc4nc(OC[C@@]56CCCN5C[C@H](F)C6)nc(N5C[C@H]6CC[C@@H](C5)N6)c4n4ccnc34)c12 [Example 28, 1-((1R,5S)-3,8-diazabicyclo[3.2.1]octan-3-yl)-6-(8-ethynyl-7-fluoronaphthalen-1-yl)-3-(((2R,7aS)-2-fluorotetrahydro-1H-pyrrolizin-7a(5H)-yl)methoxy)imidazo[1′,2′:1,6]pyrido[3,2-d]pyrimidine] | 3.53 °C | 0.27 °C
C#Cc1c(F)ccc2cc(O)cc(-c3cc4nc(OCC5(CN6CC[C@@H](F)C6)CC5)nc(N5C[C@H]6CC[C@@H](C5)N6)c4n4ccnc34)c12 [Example 30, 4-(1-((1R,5S)-3,8-diazabicyclo[3.2.1]octan-3-yl)-3-((1-(((R)-3-fluoropyrrolidin-1-yl)methyl)cyclopropyl)methoxy)imidazo[1′,2′:1,6]pyrido[3,2-d]pyrimidin-6-yl)-5-ethynyl-6-fluoronaphthalen-2-ol] | 8.12 °C | 2.81 °C
C#Cc1c(F)ccc2cc(O)cc(-c3cc4nc(OCC5(CN6CCC[C@H](F)C6)CC5)nc(N5C[C@H]6CC[C@@H](C5)N6)c4n4ccnc34)c12 [Example 31, 4-(1-((1R,5S)-3,8-diazabicyclo[3.2.1]octan-3-yl)-3-((1-(((S)-3-fluoropiperidin-1-yl)methyl)cyclopropyl)methoxy)imidazo[1′,2′:1,6]pyrido[3,2-d]pyrimidin-6-yl)-5-ethynyl-6-fluoronaphthalen-2-ol] | 7.82 °C | 2.22 °C
C#Cc1c(F)ccc2cc(O)cc(-c3cc4nc(OC[C@]56CC(=C)CN5C[C@@H](F)C6)nc(N5C[C@H]6CC[C@@H](C5)N6)c4n4ccnc34)c12 [Example 32, 4-(1-((1R,5S)-3,8-diazabicyclo[3.2.1]octan-3-yl)-3-(((2S,7aR)-2-fluoro-6-methylenetetrahydro-1H-pyrrolizin-7a(5H)-yl)methoxy)imidazo[1′,2′:1,6]pyrido[3,2-d]pyrimidin-6-yl)-5-ethynyl-6-fluoronaphthalen-2-ol] | 9.05 °C | 4.04 °C
